From patent US20140371159A1, “IN VITRO METHOD FOR MODIFYING THE DEPLETION PROFILE OF TREG CELLS PRESENT IN A TOTAL SPLENOCYTE POPULATION OF A BIOLOGICAL SAMPLE BY MEANS OF THE ISOLATION, CULTURING AND EXPOSURE THEREOF TO AN ATP AND POLYMIXIN B MEDIUM” (Universidad de Santiago de Chile, priority 2011, published 2014)
“Also recorded” adds a separate entry of the source. Like-named read-outs stand apart in the source and are kept apart here.

How the values were obtained:
[1] = test system: P2X7 receptor (CD4+CD25+ population); assay: Effect of P2X7 antagonists on PMB/ATP-induced depletion of CD4+CD25+ population in splenocytes (Example 2); format: cell-based, mice; conditions: for inhibition of the effect induced by ATP 100 μM over CD4+CD25+ population: BBG 100 nM (FIG. 5), A740003 (FIG. 6); for inhibition of the effect of low dose PMB and ATP over CD4+CD25+ populations: PPADS 10 μM, BBG 100 nM, PMB 1 μg/mL, ATP 60 μM and both, FIG. 4
Experimental: (§1) To determine the in vitro effect of polymyxin and other receptor modulators: P2X7, spleen from mice b6 and/or balbc were extracted, and splenocytes were isolated using repeated centrifugation, eliminating red cells for treatment with a lysis buffer ACK. Generally, the experiments were performed in cells obtained from animals b6. The obtained splenocytes are cultured in RPMI Medium supplemented with antibiotics and serum at 10%. Cells remain in rest for 2 hours at a concentration of 1 million cells/ml, after the same are breeding and incubated with purinergic agonists dissolved in PBS (ATP 0.1 μM-1,000 μM and NAD 0.01-1,000 μM), modulators of PMB receptor (0.001 up to 1,000 μg/m1) and gramicidine (0.001 up to 100 mg/ml). In the case of antagonists, these are used at concentrations which have been described as being more specific to P2X7 than other receptors.
Splenocytes were treated with PMB (Sigma-Aldrich, St Louis, Mont., USA) to different times and concentrations in presence of two modulators negative of the P2X7, PPADS activity and specific antagonist of P2X7 Brilliant Blue G (BBG) (see Brilliant Blue G Selectively Blocks ATP-Gated Rat P2X7 receptors. JIANG, 2000. 12). Cells were kept for 24 hrs in conditions of cell culture. Subsequently cells were recollected, blotted and analyzed by flow cytometry.

[2] = test system: CD4+CD25+FOXP3+ lymphocyte populations (human Treg); assay: Effect on human Treg lymphocyte populations in PBML from peripheral blood (Example 6); format: cell-based; conditions: 24 h; FIG. 11
Experimental: PBML 2×10^6 cells/ml obtained from peripheral blood extracted by centrifugation in gradient was cultured under standard conditions. Subsequently cells were treated with PMB (Sigma-Aldrich, St Louis, Mont., USA). The Treatments were kept for 24 h, in which cell remain in RPMI-1640 medium supplemented at 37° C. 5% CO2. After the treatments cells were harvested in buffer IF (PBS 2% SFB) cold. The obtained cells were blocked at 4° C. for 30 min in buffer IF. To determine the CD4+, CD8+ and CD4+CD25+FOXP3+ lymphocyte populations. After incubation cells were resuspended in buffer IF and analyzed by flow cytometry in the FACSCantoll equipment (Beckett Dickinson, Mississauga, Ontario, USA).

[3] = test system: Melanome murine cells B16; assay: Antitumor immune therapy: immunization with B16 apoptotic bodies, then tumor challenge (Example 4); format: in vivo, mice; conditions: for prophylaxis against the development of tumor b16: given with cell bodies; for protection of challenged animals (free of tumor): cell bodies (CA B16) alone or with the additive
Experimental: (§2) To evaluate the complementary PMB activity in antitumor therapy, first is determined the effect of this over the in vivo regulating T population. To this, animals having 6-15 weeks and different sex were subcutaneously injected with a solution containing PMB alone (between 4 to 400 μg total), ATP (between 0,4 a 40 mg total) or mixture thereof, in ratios which are not affected therebetween, the CD4CD25 foxp3 population. Animals were dead are different post-injection time, spleen was extracted, erythrocytes eliminated and T lymphocytes present evaluated. The results obtained herein allow determining that PMB injected deplexing regukating T lymphocytes under a transient way. To evaluate the complementary PMB activity in antitumor therapy, cells B16 were cultured under standard conditions in a culture DMEM medium with fetal bovine serum at 10% in a culture stove at 37° C. and 5% CO2. Cells were cultures and submitted to dead induced by deprivation of culture medium for 96 hours, into a culture stove. Cell bodies obtained were collected in sterility conditions and stored at a concentration estimated considering 1 million initial cells/ml. These bodies were prepared together with PMB and ATP inducing a reduction of T reg lymphocytes and injected 3 times each 7 days. After 7 days, once ended the immunization protocol, animals were challenged with 20.000 cells b16 alive obtained from exponential growing culture. Tumor growth was evaluated by hand after the first week daily and measure with a vernier calliper. The resuts obtained herein allow determining that PMB in vivo plus ATP and with cell bodies act in a prophylactic way increasing the number of animals free of tumor after the challenge with alive b16 cells.
Mice from 6 to 8 weeks old were treated with apoptotic bodies (CA) derived from Melanome murine cells B16 (2×10^4), with CA B16 plus ATP 500 μM, CA B16 plus PMB 10 mg/mL and with mixtures if the above three, the control was performed with the sterile immunization carrier PBS 1X.
Immunizations were performed by subcutaneous injection in the right flank in a final volume of 50 μL, at day 0, 7 and 21 of treatment. Day 0 marks the starting of the treatments. In day 28 post injection a tumor challenge was made. To that 10^4 tumor cells alive were injected in the left flank of the individual in a volume of 50 μL in sterile PBS 1X.
(§3) Mice were daily observed recording activity, weight and aspect according to parameters described by Morton y Griffiths, 1985 (see Morton D B, Griffiths P H. Guidelines on the recognition of pain, distress and discomfort in experimental animals and an hypothesis for assessment. Vet Rec. 1985 Apr. 20; 116(16):431-6). The tumor appearance was recorded and followed up to a tumor volume of 0.6 cm^3, in which animals were euthanized by cervical dislocation.

[4] = test system: systemic regulating T lymphocytes in animal spleen; assay: In vivo Treg lymphocyte depletion in spleen after subcutaneous injection (Examples 3 and 5); parameters: species or system mice C57/BL6; conditions: for death of systemic regulating T lymphocytes in spleen, drug alone: day 3 post challenge, PMB up to 400 μg total or ATP up to 50 μmoles, FIGS. 10A-10C
Experimental: as §2, with “The results obtained herein allow determining that PMB injected deplexing regukating T lymphocytes under a transient way.” left out, “calliper.” for “calliper. The resuts obtained herein allow determining that PMB in vivo plus ATP and with cell bodies act in a prophylactic way increasing the number of animals free of tumor after the challenge with alive b16 cells.”
Mice were dead, the spleen was extracted and then marking with α-CD4, αCD25, α-CD8 and α-Foxp3 antibodies were made.
Subcutaneous injections were made in mice C57/BL6 of 6 weeks old with different concentrations of PMB, ATP or mixing concentrations of both. Mice were dead, the spleen extracted and subsequently markings were made with α-CD4, αCD25, α-CD8 and α-Foxp3 antibodies.

[5] = test system: CD4+, CD8+ lymphocyte populations; assay: In vitro effect on CD8 and CD4 populations in total mouse splenocyte population, flow cytometry (Example 1); format: cell-based, mice C57/BL6
Experimental: To determine the in vitro effect of polymyxin and other receptor modulators: P2X7, spleen from mice b6 and/or balbc were extracted, and splenocytes were isolated using repeated centrifugation, eliminating red cells for treatment with a lysis buffer ACK. Generally, the experiments were performed in cells obtained from animals b6. The obtained splenocytes are cultured in RPMI Medium supplemented with antibiotics and serum at 10%. […]
Cells are cultured for different time under a RPMI culture environment supplemented with antibiotics (penicillin, streptomycin and fungizone) with serum fetal bovine serum at 10% in a culture stove at 37° C. and 5% CO2, which will be named as standard conditions. […] Samples were analyzed in a cytometer of low and analized to different subpopulations to different evaluated times. […]
Splenocytes 2×10^6 cells/ml obtained from spleen of mice C57/BL6 (6 weeks old) were cutured by 1 hour in plates 24 wells at 37° C., 5% CO2. […] After the incubation cells were re-suspended in buffer IF and analyzed by flow cytometry in the equipment FACSCantoll (Beckett Dickinson, Mississauga, Ontario, USA). […]

[6] = test system: CD4+CD25+FOXP3+ lymphocyte populations (Treg); assay: In vitro effect on Treg cells in total mouse splenocyte population, flow cytometry (Example 1); format: cell-based, mice C57/BL6; conditions: for modification of the ATP-induced effect on Treg cells: ATP response curve, FIGS. 3A and 3B
Experimental: as §1
Cells are cultured for different time under a RPMI culture environment supplemented with antibiotics (penicillin, streptomycin and fungizone) with serum fetal bovine serum at 10% in a culture stove at 37° C. and 5% CO2, which will be named as standard conditions. To evaluate the effect of the treatment over regulating T lymphocytes, samples were taken for the treatments (independients) at 24, 48 and 72 hours post challenge. The recovered lymphocytes were centrifuged at 800 g and processed to be marked with antibodies against CD4, CD8, CD25. […] Samples were analyzed in a cytometer of low and analized to different subpopulations to different evaluated times. The results obtained herein allow determining that PMB in vitro under the described conditions, selectively deplexing to splenocyte regulating T lymphocytes.
Splenocytes 2×10^6 cells/ml obtained from spleen of mice C57/BL6 (6 weeks old) were cutured by 1 hour in plates 24 wells at 37° C., 5% CO2. Lately, cells were treated with PMB (Sigma-Aldrich, St Louis, Mont., USA) to different times and concentrations (0-24-48 and 72 hours, concentrations from 0.01 a 1,000 μg/ml). The treatments were kept for 24, 48 and 72 h, in which cells were kept into RPMI-1640 medium supplemented at 37° C. 5% CO2. After the treatments cells were harvested in buffer IF (PBS 2% SFB) could without dragging the adherent population. The obtained cells were blocked at 4° C. for 30 min in buffer IF. To determine the CD4+, CD8+y CD4+CD25+FOXP3+ lymphocyte populations, about 10^6 cells to were incubated with Anti-CD8 Ly-2 (BDpharmigen, Mississauga, Ontario, USA) 4° C. for 30 min with constant stirring and CD4+ T lymphocytes and Treg were identified with the kit of marking cells Treg #3 (eBioscience, San Diego, Calif., USA)as the manufacturer protocol. After the incubation cells were re-suspended in buffer IF and analyzed by flow cytometry in the equipment FACSCantoll (Beckett Dickinson, Mississauga, Ontario, USA). The same experiments above described were repeated evaluating the effect of gramicidine, ATP and ATP in presence of two PMB concentrations.

[7] = test system: lymphoma EL4 y EL4/ADM, tumor cell lines C1498 y REH; conditions: cited from earlier work
[8] = Secondary effects on health condition and regular behavior of treated animals; format: in vivo, mice; conditions: effective dose in animals
Experimental: as §3

[9] = total population of spleeny lymphocytes

With COc1ccc(CC(=O)NC(N=C(NC#N)Nc2cccc3ncccc23)C(C)(C)C)cc1OC (stereo not drawn) [A740003] the “inhibition of the effect induced by ATP 100 μM over CD4+CD25+ population” value [1] was “inhibits only”.
In the case of Nc1ncnc2c1ncn2[C@@H]1O[C@H](COP(=O)(O)OP(=O)(O)OP(=O)(O)O)[C@@H](O)[C@H]1O [ATP], the “death of human Treg cells” value [2] is reported as “induces the death of Treg cells”, the “prophylaxis against the development of tumor b16” value [3] is reported as “induces prophylaxis” and the “death of systemic regulating T lymphocytes in spleen, drug alone” value [4] is reported as “does not induce the death”.
In the case of CCOc1ccc(Nc2ccc(/C(=C3C=C/C(=[N+](/CC)Cc4cccc(S(=O)(=O)[O-])c4)C=C/3C)c3ccc(N(CC)Cc4cccc(S(=O)(=O)[O-])c4)cc3C)cc2)cc1.[Na+] [BBG, Brilliant Blue G], the “inhibition of the effect induced by ATP 100 μM over CD4+CD25+ population” value [1] is reported as “only inhibits” and the “inhibition of the effect of low dose PMB and ATP over CD4+CD25+ populations” value [1] is reported as “are inhibited”.
In the case of Cc1nc(N=Nc2ccc(S(=O)(=O)O)cc2S(=O)(=O)O)c(COP(=O)(O)O)c(C=O)c1O [PPADS], the “inhibition of the effect of low dose PMB and ATP over CD4+CD25+ populations” value [1] is reported as “are inhibited”.
For gramicidine, the “effect over CD8 / CD4 (T helper, T cytotoxic) populations” value [5] was “does not induce changes” and the “effect over Treg (CD4+CD25+) population” value [6, 9] was “does not induce changes”.
With polymyxin B [PMB] the “effect over CD8 / CD4 (T helper, T cytotoxic) populations” value [5, 9] was “does not significantly affect; also recorded: without affecting the CD8 population neither the CD4 population”, the “death of human Treg cells” value [2] was “induces the death of Treg cells” and the “protection of challenged animals (free of tumor)” value ([3]; day 20 after inoculation of tumor cells, ATP 500 μM, PMB 10 mg/mL) was 60%. The “protection of challenged animals (free of tumor)” value ([3]; day 60 post inoculation) was 20%, the “prophylaxis against the development of tumor b16” value [3] was “induces prophylaxis” and the “increase of effectiveness of antitumor immunotherapy based on tumor cell bodies” value ([3]; murine melanoma model) was 50%. For the same molecule, the “depleting concentration relative to that used in clinical and therapeutic procedures” value [6] was 100 times lower, the “modification of the ATP-induced effect on Treg cells” value ([6]; PMB at 1 μg/ml) was “slightly modifies the effect induced by ATP” and the “modification of the ATP-induced effect on Treg cells” value ([6]; PMB at 10 μg/ml) was “produces a significant change in the response curve to ATP”. The “effect over Treg (CD4+CD25+) population” value [6, 9] was “able to induce the death”, the “PMB concentration at which PMB itself induces Treg cell depletion” value ([6]; total population of spleeny lymphocytes, FIGS. 1A and 1B) was ≥ 1 µg/mL and the “cell death in eukaryote tumor cell lines” value [7] was “induces cell death”. For the same molecule, the “secondary effects over health condition and regular behavior” value [8] was “does not demonstrate the appearance of secondary effects”, the “potentiation of Treg lymphocyte depletion in vivo” value ([4]; after 72 hrs of in vivo exposition, PMB 150 and 350 μg/Kg with ATP 1 g/Kg) was “can potentiate the deplexion” and the “PMB dose giving maximum depletion of Tregs lymphocytes” value ([4]; at a determined ATP dose (1 g/Kg), subcutaneous, FIG. 8) was 350 µg/kg. For the same molecule, the “dose behavior in depletion of Tregs lymphocytes” value ([4]; at a determined ATP dose, FIG. 8) was “linear behavior”, the “death of systemic regulating T lymphocytes in spleen, drug alone” value [4] was “does not induce the death” and the “dependence of Treg depletion on P2X7 receptor activation” value ([1]; 24 hrs culture with PPADS or BBG) was “partially depends on the P2X7 receptor activation”.
